Converted amounts (≈) assume the structure as drawn.

In the assay the test system is Mycobacterium tuberculosis. As to the kind of experiment: Antimycobacterial activity against Mycobacterium tuberculosis H37Rv after 6 days by colorimetric microassay. The format is functional. The note with it: 144 h.

As usually defined, the MIC is the lowest concentration that inhibits growth of the organism. Turning to `CC[C@@H](CO)NCCN[C@@H](CC)CO` [ETHAMBUTOL], the lowest concentration to inhibit growth (MIC) was 2 µg/mL (≈ 9.79 µM).

Values taken from ChEMBL document CHEMBL1143737, “Synthesis and biological evaluation of conformationally constrained analogues of the antitubercular agent ethambutol” (2007).
